Laboratory results as given in the supplement of paper PMC10307832.

How the values were obtained:
Experiment in all cases: relative viability (nuclei count vs DMSO), 5 days (fraction); higher = more cells survive
[1] = compound: O=C(CCCCCCNC(=O)c1cnc(N(c2ccccc2)c2ccccc2)nc1)NO [Ricolinostat] + CCNC(=O)c1noc(-c2cc(C(C)C)c(O)cc2O)c1-c1ccc(CN2CCOCC2)cc1 [Luminespib] (partner 0.01 µM)
Procedure, shortened: (§1)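 Relative viability equals treated-well nuclei counts divided by vehicle-well nuclei counts. Counts came from 4× images of lung cancer cell lines grown in 1536-well plates for 5 days after pin-tool dosing on the day after seeding. Dosing used one drug alone or a fixed anchor-drug dose plus five library-drug doses (not always all listed) in √10 steps, and values are medians of duplicate plates.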

[2] = compound: CC1=CN2C(=O)C=C(N=C2C(=C1)C(C)NC3=CC=CC=C3)N4CCOCC4 [TGX 221] + CCNC(=O)c1noc(-c2cc(C(C)C)c(O)cc2O)c1-c1ccc(CN2CCOCC2)cc1 [Luminespib] (partner 0.01 µM)
Procedure, shortened: as §1

[3] = compound: CC1=CN2C(=O)C=C(N=C2C(=C1)C(C)NC3=CC=CC=C3)N4CCOCC4 [TGX 221] + CC(C)C[C@H](NC(=O)[C@H](Cc1ccccc1)NC(=O)c1cnccn1)B(O)O [Bortezomib] (partner 0.002 µM)
Procedure, shortened: as §1

[4] = compound: C1=CC=C(C(=C1)C2=CC=C(C=C2)C3=CSC4=C3C(=C(C(=O)N4)C#N)O)O + Nc1nc2[nH]cc(CCc3ccc(C(=O)N[C@@H](CCC(=O)O)C(=O)O)cc3)c2c(=O)[nH]1 [Pemetrexed] (partner 0.2 µM)
Procedure, shortened: as §1

Cell Line: LCLC-97TM1
- relative viability ([1]; first compound 0.08 µM): 0.651
- relative viability ([1]; first compound 0.253 µM): 0.752
- relative viability ([1]; first compound 0.8 µM): 0.565
- relative viability ([1]; first compound 2.53 µM): 0.561
- relative viability ([2]; first compound 0.08 µM): 0.732
- relative viability ([2]; first compound 0.253 µM): 0.63
- relative viability ([2]; first compound 0.8 µM): 0.821
- relative viability ([2]; first compound 2.53 µM): 0.602
- relative viability ([2]; first compound 8 µM): 0.834
- relative viability ([3]; first compound 0.08 µM): 0.586
- relative viability ([3]; first compound 0.253 µM): 0.421
- relative viability ([3]; first compound 0.8 µM): 0.504
- relative viability ([3]; first compound 2.53 µM): 0.736
- relative viability ([3]; first compound 8 µM): 0.405
- relative viability ([4]; first compound 0.08 µM): 0.177
- relative viability ([4]; first compound 0.253 µM): 0.179
- relative viability ([4]; first compound 0.8 µM): 0.16
- relative viability ([4]; first compound 2.53 µM): 0.182
- relative viability ([4]; first compound 8 µM): 0.166

Cell Line: NCI-H1437
- relative viability ([1]; first compound 0.08 µM): 0.984
- relative viability ([1]; first compound 0.253 µM): 1.08
- relative viability ([1]; first compound 0.8 µM): 1.12
- relative viability ([1]; first compound 2.53 µM): 0.92
- relative viability ([2]; first compound 0.08 µM): 1.09
- relative viability ([2]; first compound 0.253 µM): 1.11
- relative viability ([2]; first compound 0.8 µM): 1.16
- relative viability ([2]; first compound 2.53 µM): 1.1
- relative viability ([2]; first compound 8 µM): 0.929
- relative viability ([3]; first compound 0.08 µM): 0.535
- relative viability ([3]; first compound 0.253 µM): 0.53
- relative viability ([3]; first compound 0.8 µM): 0.522
- relative viability ([3]; first compound 2.53 µM): 0.414
- relative viability ([3]; first compound 8 µM): 0.486
- relative viability ([4]; first compound 0.08 µM): 0.301
- relative viability ([4]; first compound 0.253 µM): 0.371
- relative viability ([4]; first compound 0.8 µM): 0.324
- relative viability ([4]; first compound 2.53 µM): 0.323
- relative viability ([4]; first compound 8 µM): 0.323

Cell Line: NCI-H1915
- relative viability ([1]; first compound 0.08 µM): 0.71
- relative viability ([1]; first compound 0.253 µM): 0.79
- relative viability ([1]; first compound 0.8 µM): 0.784
- relative viability ([1]; first compound 2.53 µM): 0.669
- relative viability ([2]; first compound 0.08 µM): 0.726
- relative viability ([2]; first compound 0.253 µM): 0.747
- relative viability ([2]; first compound 0.8 µM): 0.745
- relative viability ([2]; first compound 2.53 µM): 0.757
- relative viability ([2]; first compound 8 µM): 0.725
- relative viability ([3]; first compound 0.08 µM): 0.897
- relative viability ([3]; first compound 0.253 µM): 0.963
- relative viability ([3]; first compound 0.8 µM): 1.04
- relative viability ([3]; first compound 2.53 µM): 0.914
- relative viability ([3]; first compound 8 µM): 1.02
- relative viability ([4]; first compound 0.08 µM): 0.437
- relative viability ([4]; first compound 0.253 µM): 0.443
- relative viability ([4]; first compound 0.8 µM): 0.486
- relative viability ([4]; first compound 2.53 µM): 0.481
- relative viability ([4]; first compound 8 µM): 0.506

Cell Line: NCI-H441
- relative viability ([1]; first compound 0.253 µM): 0.376
- relative viability ([1]; first compound 0.8 µM): 0.328
- relative viability ([1]; first compound 2.53 µM): 0.373
- relative viability ([2]; first compound 0.08 µM): 0.554
- relative viability ([2]; first compound 0.253 µM): 0.307
- relative viability ([2]; first compound 0.8 µM): 0.364
- relative viability ([2]; first compound 2.53 µM): 0.312
- relative viability ([2]; first compound 8 µM): 0.278
- relative viability ([3]; first compound 0.08 µM): 0.515
- relative viability ([3]; first compound 0.253 µM): 0.772
- relative viability ([3]; first compound 0.8 µM): 0.416
- relative viability ([3]; first compound 2.53 µM): 0.566
- relative viability ([3]; first compound 8 µM): 0.389
- relative viability ([4]; first compound 0.08 µM): 0.26
- relative viability ([4]; first compound 0.253 µM): 0.282
- relative viability ([4]; first compound 0.8 µM): 0.232
- relative viability ([4]; first compound 2.53 µM): 0.237
- relative viability ([4]; first compound 8 µM): 0.267

Cell Line: SW 1573
- relative viability ([1]; first compound 0.08 µM): 0.389
- relative viability ([1]; first compound 0.253 µM): 0.214
- relative viability ([1]; first compound 0.8 µM): 0.144
- relative viability ([1]; first compound 2.53 µM): 0.154
- relative viability ([2]; first compound 0.08 µM): 0.211
- relative viability ([2]; first compound 0.253 µM): 0.353
- relative viability ([2]; first compound 0.8 µM): 0.247
- relative viability ([2]; first compound 2.53 µM): 0.221
- relative viability ([2]; first compound 8 µM): 0.278
- relative viability ([3]; first compound 0.08 µM): 0.91
- relative viability ([3]; first compound 0.253 µM): 1.09
- relative viability ([3]; first compound 0.8 µM): 1.04
- relative viability ([3]; first compound 2.53 µM): 0.945
- relative viability ([3]; first compound 8 µM): 0.839
- relative viability ([4]; first compound 0.08 µM): 0.61
- relative viability ([4]; first compound 0.253 µM): 0.982
- relative viability ([4]; first compound 0.8 µM): 0.788
- relative viability ([4]; first compound 2.53 µM): 0.851
- relative viability ([4]; first compound 8 µM): 0.728

Cell Line: NCI-H661
- relative viability ([1]; first compound 0.08 µM): 0.743
- relative viability ([1]; first compound 0.253 µM): 0.886
- relative viability ([1]; first compound 0.8 µM): 0.881
- relative viability ([1]; first compound 2.53 µM): 0.685
- relative viability ([2]; first compound 0.08 µM): 0.906
- relative viability ([2]; first compound 0.253 µM): 0.919
- relative viability ([2]; first compound 0.8 µM): 0.899
- relative viability ([2]; first compound 2.53 µM): 0.956
- relative viability ([2]; first compound 8 µM): 0.939
- relative viability ([3]; first compound 0.08 µM): 0.689
- relative viability ([3]; first compound 0.253 µM): 0.59
- relative viability ([3]; first compound 0.8 µM): 0.75
- relative viability ([3]; first compound 2.53 µM): 0.677
- relative viability ([3]; first compound 8 µM): 0.668
- relative viability ([4]; first compound 0.08 µM): 0.834
- relative viability ([4]; first compound 0.253 µM): 1
- relative viability ([4]; first compound 0.8 µM): 0.933
- relative viability ([4]; first compound 2.53 µM): 0.937
- relative viability ([4]; first compound 8 µM): 0.85

Cell Line: PC-3 [JPC-3]
- relative viability ([1]; first compound 0.253 µM): 0.702
- relative viability ([1]; first compound 0.8 µM): 0.764
- relative viability ([1]; first compound 2.53 µM): 0.66
- relative viability ([2]; first compound 0.08 µM): 0.584
- relative viability ([2]; first compound 0.253 µM): 0.651
- relative viability ([2]; first compound 0.8 µM): 0.693
- relative viability ([2]; first compound 2.53 µM): 0.73
- relative viability ([2]; first compound 8 µM): 0.681
- relative viability ([3]; first compound 0.08 µM): 0.759
- relative viability ([3]; first compound 0.253 µM): 0.73
- relative viability ([3]; first compound 0.8 µM): 0.883
- relative viability ([3]; first compound 2.53 µM): 0.735
- relative viability ([3]; first compound 8 µM): 0.851
- relative viability ([4]; first compound 0.08 µM): 1.08
- relative viability ([4]; first compound 0.253 µM): 1.19
- relative viability ([4]; first compound 0.8 µM): 1.06
- relative viability ([4]; first compound 2.53 µM): 0.942
- relative viability ([4]; first compound 8 µM): 0.98

Cell Line: 201T
- relative viability ([1]; first compound 0.08 µM): 0.94
- relative viability ([1]; first compound 0.253 µM): 1.04
- relative viability ([1]; first compound 0.8 µM): 1.09
- relative viability ([1]; first compound 2.53 µM): 1.08
- relative viability ([2]; first compound 0.08 µM): 1.09
- relative viability ([2]; first compound 0.253 µM): 1.04
- relative viability ([2]; first compound 0.8 µM): 1.13
- relative viability ([2]; first compound 2.53 µM): 0.979
- relative viability ([2]; first compound 8 µM): 0.871
- relative viability ([3]; first compound 0.253 µM): 1.15
- relative viability ([3]; first compound 0.8 µM): 1.08
- relative viability ([3]; first compound 2.53 µM): 1.05
- relative viability ([3]; first compound 8 µM): 0.996
- relative viability ([4]; first compound 0.08 µM): 0.354
- relative viability ([4]; first compound 0.253 µM): 0.331
- relative viability ([4]; first compound 0.8 µM): 0.358
- relative viability ([4]; first compound 2.53 µM): 0.353
- relative viability ([4]; first compound 8 µM): 0.298
